In ChEMBL document CHEMBL5154741, “Antibacterial alkylguanidino ureas: Molecular simplification approach, searching for membrane-based MoA” (Eur J Med Chem, 2022):
Converted amounts (≈) assume the structure as drawn. The source made the active and inactive calls. The rule behind the calls is not given here.

Legend:
Enterococcus faecalis = assay: Antibacterial activity against Enterococcus faecalis ATCC 19433 assessed as bacterial growth inhibition incubated for 18 hrs by micro-dilution broth method; assay type: functional
Lipid bilayer [1] = assay: Binding affinity to bacterial membrane mimic POPG large unilamellar vesicle assessed as bathochromic shift at 125 uM measured at t = 0 by UV-Vis spectrophotometric analysis
Bacillus subtilis = assay: Antibacterial activity against Bacillus subtilis ATCC 6633 assessed as bacterial growth inhibition incubated for 18 hrs by CLSI based micro-dilution broth method; assay type: functional
Lipid bilayer [2] = assay: Binding affinity to bacterial membrane mimic POPG large unilamellar vesicle assessed as hyperchromic shift at 125 uM measured after 1 hr by UV-Vis spectrophotometric analysis
Escherichia coli = assay: Antibacterial activity against Escherichia coli CCUG assessed as bacterial growth inhibition incubated for 18 hrs by micro-dilution broth method; assay type: functional
Staphylococcus aureus = assay: Antibacterial activity against Staphylococcus aureus ATCC 25923 assessed as bacterial growth inhibition incubated for 18 hrs by micro-dilution broth method; assay type: functional
Klebsiella pneumoniae [3] = assay: Antibacterial activity against Klebsiella pneumoniae ATCC 13833 assessed as bacterial growth inhibition incubated for 18 hrs by micro-dilution broth method; assay type: functional
Pseudomonas aeruginosa = assay: Antibacterial activity against Pseudomonas aeruginosa ATCC 27853 assessed as bacterial growth inhibition incubated for 18 hrs by micro-dilution broth method; assay type: functional
Streptococcus pyogenes = assay: Antibacterial activity against Streptococcus pyogenes ATCC 12344 assessed as bacterial growth inhibition incubated for 18 hrs by micro-dilution broth method; assay type: functional
Acinetobacter baumannii [4] = assay: Antibacterial activity against Acinetobacter baumannii ATCC 17978 assessed as bacterial growth inhibition incubated for 18 hrs by micro-dilution broth method; assay type: functional
Klebsiella pneumoniae [5] = assay: Antibacterial activity against pan drug-resistant Klebsiella pneumoniae S1-081Rb assessed as bacterial growth inhibition incubated for 18 hrs by CLSI based micro-dilution broth method; assay type: functional
Enterobacter cloacae = assay: Antibacterial activity against Enterobacter cloacae VA-417/02 assessed as bacterial growth inhibition incubated for 18 hrs by CLSI based micro-dilution broth method; assay type: functional
Acinetobacter baumannii [6] = assay: Antibacterial activity against Acinetobacter baumannii AC-54/97 assessed as bacterial growth inhibition incubated for 18 hrs by CLSI based micro-dilution broth method; assay type: functional

Row | Compound | MIC (Enterococcus faecalis) | Activity (Lipid bilayer [1]) | MIC (Bacillus subtilis) | Activity (Lipid bilayer [2]) | MIC (Escherichia coli) | MIC (Staphylococcus aureus) | MIC (Klebsiella pneumoniae [3]) | MIC (Pseudomonas aeruginosa) | MIC (Streptococcus pyogenes) | MIC (Acinetobacter baumannii [4]) | MBC (Klebsiella pneumoniae [5]) | MIC (Klebsiella pneumoniae [5]) | MBC (Enterobacter cloacae) | MIC (Enterobacter cloacae) | MBC (Acinetobacter baumannii [6]) | MIC (Acinetobacter baumannii [6])
1 | N=C(N)NCCCCCCCCN(CCCCCCCCN)C(=O)N(CCCCCCCCN)CCCCCCCCN | 32 µg/mL (≈ 52.4 µM) | Active | 4 µg/mL (≈ 6.55 µM) | Active | 32 µg/mL (≈ 52.4 µM) | 2 µg/mL (≈ 3.27 µM) | 64 µg/mL (≈ 105 µM) | 128 µg/mL (≈ 209 µM) | 16 µg/mL (≈ 26.2 µM) | 64 µg/mL (≈ 105 µM) |  |  |  |  |  | 
2 | CNC(=O)NCCCCCCCCNC(=N)NCC1CC1.O=C(O)C(F)(F)F | 64 µg/mL |  | 64 µg/mL |  | 128 µg/mL | 32 µg/mL | 128 µg/mL | > 128 µg/mL | 128 µg/mL | > 128 µg/mL |  |  |  |  |  | 
3 | N=C(NCCCCCCCCN(CCCCCCCCNC(=N)NCC1CC1)C(N)=O)NCC1CC1.O=C(O)C(F)(F)F | 16 µg/mL |  | 8 µg/mL |  | 32 µg/mL | 16 µg/mL | 32 µg/mL | 128 µg/mL | 2 µg/mL | 128 µg/mL |  |  |  |  |  | 
4 | N=C(N)NCCCCCCCCN(CCCCCCCCN)C(=O)N(CCCCCCCCNC(=N)N)CCCCCCCCNC(=N)N | 4 µg/mL (≈ 5.75 µM) | Active | 1 µg/mL (≈ 1.44 µM) | Active | 2 µg/mL (≈ 2.88 µM) | 1 µg/mL (≈ 1.44 µM) | 8 µg/mL (≈ 11.5 µM) | 16 µg/mL (≈ 23 µM) | 0.25 µg/mL (≈ 0.36 µM) | 16 µg/mL (≈ 23 µM) | 16 µg/mL (≈ 23 µM) | 16 µg/mL (≈ 23 µM) | 8 µg/mL (≈ 11.5 µM) | 8 µg/mL (≈ 11.5 µM) | 8 µg/mL (≈ 11.5 µM) | 8 µg/mL (≈ 11.5 µM)
5 | CCCCCCN(CCCCCCCCNC(=N)NCC1CC1)C(=O)N(CCCCCCCCNC(=N)NCC1CC1)CCCCCCCCNC(=N)NCC1CC1 | 1 µg/mL (≈ 1.23 µM) |  | 2 µg/mL (≈ 2.46 µM) |  | 4 µg/mL (≈ 4.91 µM) | 2 µg/mL (≈ 2.46 µM) | 8 µg/mL (≈ 9.82 µM) | 16 µg/mL (≈ 19.6 µM) | 1 µg/mL (≈ 1.23 µM) | 8 µg/mL (≈ 9.82 µM) |  |  |  |  |  | 
6 | CCCCCCCCN(CCCCCCCC)C(=O)N(CCCCCCCC)CCCCCCCC | > 128 µg/mL |  | > 128 µg/mL |  | > 128 µg/mL | > 128 µg/mL | > 128 µg/mL | > 128 µg/mL | > 128 µg/mL | > 128 µg/mL |  |  |  |  |  | 
7 | N=C(N)NCCCCCCCCN(CCCCCCCCNC(=N)N)C(=O)N(CCCCCCCCN)CCCCCCCCN | 8 µg/mL (≈ 12.2 µM) |  | 0.5 µg/mL (≈ 0.766 µM) |  | 2 µg/mL (≈ 3.06 µM) | 0.5 µg/mL (≈ 0.766 µM) | 16 µg/mL (≈ 24.5 µM) | 32 µg/mL (≈ 49 µM) | 0.25 µg/mL (≈ 0.383 µM) | 16 µg/mL (≈ 24.5 µM) |  |  |  |  |  | 
8 | CCCCCCCCN(CCCCCCCCNC(=N)NCC1CC1)C(=O)N(CCCCCCCCNC(=N)NCC1CC1)CCCCCCCCNC(=N)NCC1CC1 | 2 µg/mL (≈ 2.37 µM) | Active | 2 µg/mL (≈ 2.37 µM) | Active | 4 µg/mL (≈ 4.75 µM) | 16 µg/mL (≈ 19 µM) | 4 µg/mL (≈ 4.75 µM) | 8 µg/mL (≈ 9.5 µM) | 1 µg/mL (≈ 1.19 µM) | 4 µg/mL (≈ 4.75 µM) |  |  |  |  |  | 
9 | CCCCCCN(CCCCCCNC(=N)NCC1CC1)C(=O)N(CCCCCCCCNC(=N)NCC1CC1)CCCCCCNC(=N)NCC1CC1 | 2 µg/mL (≈ 2.64 µM) |  | 1 µg/mL (≈ 1.32 µM) |  | 4 µg/mL (≈ 5.28 µM) | 2 µg/mL (≈ 2.64 µM) | 8 µg/mL (≈ 10.6 µM) | 64 µg/mL (≈ 84.4 µM) | 1 µg/mL (≈ 1.32 µM) | 32 µg/mL (≈ 42.2 µM) |  |  |  |  |  | 
10 | COLISTIN |  |  |  |  | 0.5 µg/mL |  | 0.5 µg/mL | 0.5 µg/mL |  | 1 µg/mL |  |  |  |  |  | 
11 | CNC(=O)N(CCCCCCCCNC(=N)NCC1CC1)CCCCCCCCNC(=N)NCC1CC1 | 64 µg/mL (≈ 123 µM) |  | 32 µg/mL (≈ 61.4 µM) |  | 128 µg/mL (≈ 246 µM) | 128 µg/mL (≈ 246 µM) | 128 µg/mL (≈ 246 µM) | > 128 µg/mL | 8 µg/mL (≈ 15.4 µM) | > 128 µg/mL |  |  |  |  |  | 
12 | CCCCCCCCN(CCCCCCCCNC(=N)NCC1CC1)C(=O)N(CCCCCCCC)CCCCCCCCNC(=N)NCC1CC1.O=C(O)C(F)(F)F | 32 µg/mL |  | 128 µg/mL |  | > 128 µg/mL | > 128 µg/mL | 128 µg/mL | > 128 µg/mL | 8 µg/mL | > 128 µg/mL |  |  |  |  |  | 
13 | CN[C@H](CC(C)C)C(=O)N[C@H]1C(=O)N[C@@H](CC(N)=O)C(=O)N[C@H]2C(=O)N[C@H]3C(=O)N[C@H](C(=O)N[C@H](C(=O)O)c4cc(O)cc(O)c4-c4cc3ccc4O)[C@H](O)c3ccc(c(Cl)c3)Oc3cc2cc(c3O[C@@H]2O[C@H](CO)[C@@H](O)[C@H](O)[C@H]2O[C@H]2C[C@](C)(N)[C@H](O)[C@H](C)O2)Oc2ccc(cc2Cl)[C@H]1O [VANCOMYCIN] | 1 µg/mL (≈ 0.69 µM) |  | 0.5 µg/mL (≈ 0.345 µM) |  |  |  |  |  | 1 µg/mL (≈ 0.69 µM) |  |  |  |  |  |  | 
14 | CCCCCCCCN(CCCCCCCC)C(=O)N(CCCCCCCCNC(=N)NCC1CC1)CCCCCCCCNC(=N)NCC1CC1.O=C(O)C(F)(F)F | 128 µg/mL |  | 128 µg/mL |  | 128 µg/mL | > 128 µg/mL | 64 µg/mL | > 128 µg/mL | 4 µg/mL | 128 µg/mL |  |  |  |  |  | 
15 | N=C(NCCCCCCCCNC(=O)NCCCCCCCCNC(=N)NCC1CC1)NCC1CC1 | 64 µg/mL (≈ 126 µM) |  | > 128 µg/mL |  | 64 µg/mL (≈ 126 µM) | 128 µg/mL (≈ 253 µM) | > 128 µg/mL | > 128 µg/mL | 8 µg/mL (≈ 15.8 µM) |  |  |  |  |  |  | 
16 | CCCCCCCCN(CCCCCCNC(=N)NCC1CC1)C(=O)N(CCCCCCCCNC(=N)NCC1CC1)CCCCCCCCNC(=N)NCC1CC1 | 2 µg/mL (≈ 2.46 µM) |  | 2 µg/mL (≈ 2.46 µM) |  | 2 µg/mL (≈ 2.46 µM) | 1 µg/mL (≈ 1.23 µM) | 2 µg/mL (≈ 2.46 µM) | 8 µg/mL (≈ 9.82 µM) | 1 µg/mL (≈ 1.23 µM) | 4 µg/mL (≈ 4.91 µM) |  |  |  |  |  | 
17 | NCCCCCCCCN(CCCCCCCCN)C(=O)N(CCCCCCCCN)CCCCCCCCN | 16 µg/mL (≈ 28.1 µM) |  | 4 µg/mL (≈ 7.03 µM) |  | 32 µg/mL (≈ 56.2 µM) | 8 µg/mL (≈ 14.1 µM) | 16 µg/mL (≈ 28.1 µM) | 32 µg/mL (≈ 56.2 µM) | 4 µg/mL (≈ 7.03 µM) | 16 µg/mL (≈ 28.1 µM) |  |  |  |  |  | 
18 | N=C(NCCCCCCCCNC(=O)N(CCCCCCCCNC(=N)NCC1CC1)CCCCCCCCNC(=N)NCC1CC1)NCC1CC1.O=C(O)C(F)(F)F | 8 µg/mL | Active | 1 µg/mL | Active | 8 µg/mL | 4 µg/mL | 8 µg/mL | 64 µg/mL | 1 µg/mL | 64 µg/mL |  |  |  |  |  | 
19 | CCCCCCCCCC(=O)N[C@@H](Cc1c[nH]c2ccccc12)C(=O)N[C@H](CC(N)=O)C(=O)N[C@@H](CC(=O)O)C(=O)N[C@@H]1C(=O)NCC(=O)N[C@@H](CCCN)C(=O)N[C@@H](CC(=O)O)C(=O)N[C@H](C)C(=O)N[C@@H](CC(=O)O)C(=O)NCC(=O)N[C@H](CO)C(=O)N[C@@H]([C@H](C)CC(=O)O)C(=O)N[C@@H](CC(=O)c2ccccc2N)C(=O)O[C@@H]1C | 1 µg/mL (≈ 0.617 µM) |  | 1 µg/mL (≈ 0.617 µM) |  |  | 0.12 µg/mL (≈ 0.074 µM) |  |  | 0.5 µg/mL (≈ 0.309 µM) |  |  |  |  |  |  | 
20 | N=C(N)NCCCCCCCCN(CCCCCCCCNC(=N)N)C(=O)N(CCCCCCCCNC(=N)N)CCCCCCCCNC(=N)NCC1CC1.O=C(O)C(F)(F)F | 2 µg/mL |  | 2 µg/mL |  | 8 µg/mL | 2 µg/mL | 4 µg/mL | 16 µg/mL | 1 µg/mL | 8 µg/mL | 16 µg/mL | 8 µg/mL | 8 µg/mL | 8 µg/mL | 16 µg/mL | 8 µg/mL
21 | N=C(N)NCCCCCCN(CCCCCCN)C(=O)N(CCCCCCN)CCCCCCNC(=N)N | > 128 µg/mL |  | 32 µg/mL (≈ 59.2 µM) |  | > 128 µg/mL | 128 µg/mL (≈ 237 µM) | > 128 µg/mL | > 128 µg/mL | 128 µg/mL (≈ 237 µM) | > 128 µg/mL |  |  |  |  |  | 
22 | CCCCCCCCN(CCCCCCCC)C(=O)N(CCCCCCCC)CCCCCCCCNC(=N)NCC1CC1.O=C(O)C(F)(F)F | 128 µg/mL |  | 64 µg/mL |  | > 128 µg/mL | > 128 µg/mL | > 128 µg/mL | > 128 µg/mL | 16 µg/mL | > 128 µg/mL |  |  |  |  |  | 
